This experiment can be described thus: Inhibitory activity against Translocase I.

pIC50: −log10 of the molar value.

As for `NC[C@H]1O[C@@H](O[C@@H](CNC(=O)Nc2ccc(C3CCCCC3)cc2)[C@@H]2C[C@@H](O)[C@H](n3ccc(=O)[nH]c3=O)O2)[C@H](O)[C@@H]1O`, the negative-log IC50 (pIC50) – broadly, the negative decadic logarithm of the IC50, by convention in mol/L – is 6.80.

`NC[C@H]1O[C@@H](O[C@@H](CNCc2ccncc2)[C@@H]2C[C@@H](O)[C@H](n3ccc(=O)[nH]c3=O)O2)[C@H](O)[C@@H]1O` showed a pIC50 of 5.47. Regarding `CSCC[C@H](NC(=O)N[C@@H](Cc1cccc(O)c1)C(=O)O)C(=O)NC(C(=O)N/C=C1\C[C@@H](O)[C@H](n2ccc(=O)[nH]c2=O)O1)[C@H](C)N(C)C(=O)[C@@H](N)Cc1cccc(O)c1` (stereo not given in full), the pIC50 was 7.19.

In the case of `NC[C@H]1O[C@@H](O[C@@H](CNC(=O)c2ccccc2)[C@@H]2C[C@@H](O)[C@H](n3ccc(=O)[nH]c3=O)O2)[C@H](O)[C@@H]1O`, the pIC50 was 4.85. Consider `CCCCCN(CCCCC)C[C@H](O[C@@H]1O[C@H](CN)[C@@H](O)[C@H]1O)[C@@H]1C[C@@H](O)[C@H](n2ccc(=O)[nH]c2=O)O1`, for which the pIC50 was 5.01. The pIC50 values of the last two compounds are within 0.2 log units of each other.

The compound `COC(=O)c1ccc(CNC[C@H](O[C@@H]2O[C@H](CN)[C@@H](O)[C@H]2O)[C@@H]2C[C@@H](O)[C@H](n3ccc(=O)[nH]c3=O)O2)cc1` showed a pIC50 of 5.92.

In the case of `CN(Cc1ccccc1)C[C@H](O[C@@H]1O[C@H](CN)[C@@H](O)[C@H]1O)[C@@H]1C[C@@H](O)[C@H](n2ccc(=O)[nH]c2=O)O1`, the pIC50 was 5.16. Against the preceding compound, the pIC50 is 0.76 log units lower. The result for `CCN(CC)CCN1CCN(C[C@H](O[C@@H]2O[C@H](CN)[C@@H](O)[C@H]2O)[C@@H]2C[C@@H](O)[C@H](n3ccc(=O)[nH]c3=O)O2)CC1` reads 5.74; that for `NC[C@H]1O[C@@H](O[C@@H](CNCc2ccc(OC(F)(F)F)cc2)[C@@H]2C[C@@H](O)[C@H](n3ccc(=O)[nH]c3=O)O2)[C@H](O)[C@@H]1O`, 6.52; that for `CCCCCCCCCCCCN(C)C[C@H](O[C@@H]1O[C@H](CN)[C@@H](O)[C@H]1O)[C@@H]1C[C@@H](O)[C@H](n2ccc(=O)[nH]c2=O)O1`, 6.64. For the compound `CCCCCCCNC[C@H](O[C@@H]1O[C@H](CN)[C@@H](O)[C@H]1O)[C@@H]1C[C@@H](O)[C@H](n2ccc(=O)[nH]c2=O)O1`, the pIC50 is 6.13.

Take `CN1CCCC1CNC[C@H](O[C@@H]1O[C@H](CN)[C@@H](O)[C@H]1O)[C@@H]1C[C@@H](O)[C@H](n2ccc(=O)[nH]c2=O)O1` (stereo not given in full): the pIC50 was 5.89. Turning to `NC[C@H]1O[C@@H](O[C@@H](CNCc2cccnc2)[C@@H]2C[C@@H](O)[C@H](n3ccc(=O)[nH]c3=O)O2)[C@H](O)[C@@H]1O`, the pIC50 is 5.32. Compared with the last compound, the pIC50 is 0.57 log units lower. The result for `NC[C@H]1O[C@@H](OC[C@H]2O[C@@H](n3ccc(=O)[nH]c3=O)[C@H](O)[C@@H]2O)[C@H](O)[C@@H]1O` reads 4.30. In turn, `NC[C@H]1O[C@@H](O[C@@H](CNCc2cccs2)[C@@H]2C[C@@H](O)[C@H](n3ccc(=O)[nH]c3=O)O2)[C@H](O)[C@@H]1O` gave a pIC50 of 5.64. The compound `NC[C@H]1O[C@@H](O[C@@H](CN2CCCCC2)[C@@H]2C[C@@H](O)[C@H](n3ccc(=O)[nH]c3=O)O2)[C@H](O)[C@@H]1O` gave a pIC50 of 5.23. This pIC50 is 0.41 log units lower than that of the compound before. As to `NC[C@H]1O[C@@H](O[C@@H](CN2CCN(CC(=O)N3CCCC3)CC2)[C@@H]2C[C@@H](O)[C@H](n3ccc(=O)[nH]c3=O)O2)[C@H](O)[C@@H]1O`, the pIC50 is 5.72. Compound `NC[C@H]1O[C@@H](O[C@@H](CNC(=O)c2ccc(C3CCCCC3)cc2)[C@@H]2C[C@@H](O)[C@H](n3ccc(=O)[nH]c3=O)O2)[C@H](O)[C@@H]1O` showed a pIC50 of 6.41. Compared with the last compound, the pIC50 is 0.69 log units higher. The compound `CC(=O)N[C@H]1[C@@H](O[C@@H]2O[C@H](CC(O)[C@H]3O[C@@H](n4ccc(=O)[nH]c4=O)[C@H](O)[C@@H]3O)[C@H](O)[C@H](O)[C@H]2NC(=O)/C=C/CC(C)C)O[C@H](CO)[C@@H](N)[C@@H]1O` (stereo not given in full) [TUNICAMYCIN] showed a pIC50 of 6.32.

The compound `NC[C@H]1O[C@@H](O[C@@H](CNc2ccc(C3CCCCC3)cc2)[C@@H]2C[C@@H](O)[C@H](n3ccc(=O)[nH]c3=O)O2)[C@H](O)[C@@H]1O` gave a pIC50 of 6.74.

For the origin of these results see ChEMBL document CHEMBL1135290, “Synthesis of sub-micromolar inhibitors of MraY by exploring the region originally occupied by the diazepanone ring in the liposidomycin structure” (Bioorg Med Chem Lett, 2002).
